The text below walks through data of patent US20050221501A1, “Dissolution method” (priority 2003, published 2005).

Data set [1] is described as follows: Biopharmaceutics Classification System (BCS) classification. Format: physicochemical. From the text:
Under the BCS system Class II compounds are sparingly soluble with high permeability.

Data set [2] in a line: pH-dependent aqueous solubility of the Agent. The data set is classed as physicochemical. Conditions: free-base form.
The conditions of data set [3]: aqueous dissolution medium containing 4% sodium lauryl sulfate, in 60 minutes; cited from earlier work.

For the compound `COc1cc2ncnc(Nc3ccc(F)c(Cl)c3)c2cc1OCCCN1CCOCC1` [Agent, 4-(3′-chloro-4′-fluoroanilino)-7-methoxy-6-(3-morpholinopropoxy)quinazoline], in data set [1], the BCS class entry was “Class II”. Further, the solubility result in data set [2] (above pH 7) is on record as “very low solubility”. Moreover, the “ml of aqueous solvent required to dissolve 1 g of Agent” value in data set [2] (pH 6) was no less than 10000 mL.
On to `COC1=CC(=O)C[C@@H](C)[C@]12Oc1c(Cl)c(OC)cc(OC)c1C2=O` [Griseofluvin], for which the “% dissolution” value in data set [3] is given as “at least 75%”.
